The record followed here is ChEMBL document CHEMBL5150036, “Photoredox-based late-stage functionalization in SAR study for in vivo potent glucosylceramide synthase inhibitor” (Bioorg Med Chem Lett, 2022).

Data set [1] in a line: 1-Octanol/aqueous buffer partition coefficient, logD of the compound at pH 7.4 by chromatographic method. The format is physicochemical.
A short description of data set [2]: Metabolic stability in mouse liver microsomes assessed as intrinsic clearance at 1 uM in the presence of NADPH regenerating system by LC/MS/MS analysis. It is filed as ADME, Microsome. Conditions: read-out: CLH. On the technique in general: Liver microsomes are vesicles of endoplasmic reticulum, rich in cytochrome P450 enzymes.
Data set [3] can be described thus: Metabolic stability in human liver microsomes assessed as intrinsic clearance at 1 uM in the presence of NADPH regenerating system by LC/MS/MS analysis. The format is ADME, Microsome. Conditions: read-out: CLH.
Data set [4] is described as follows: Drug concentration in ICR mouse plasma at 10 mg/kg, po measured after 60 mins by LC-MS/MS analysis. The format is ADME, organism-based.
Data set [5] can be described thus: Unbound brain-to-plasma concentration ratio in ICR mouse at 10 mg/kg, po measured after 60 mins by LC-MS/MS analysis. It is filed as ADME, organism-based. Conditions: read-out: K(p,uu,brain).
Data set [6] can be described thus: Drug concentration in ICR mouse brain at 10 mg/kg, po measured after 60 mins by LC-MS/MS analysis. The format is ADME, organism-based. Conditions: read-out: Ct.
Data set [7] is described as follows: Unbound drug concentration in ICR mouse plasma at 10 mg/kg, po measured after 60 mins by LC-MS/MS analysis. It is filed as ADME, organism-based. Conditions: in vivo, 1 h.
Data set [8] is described as follows: Unbound drug concentration in ICR mouse brain at 10 mg/kg, po measured after 60 mins by LC-MS/MS analysis. It is filed as ADME, organism-based. Conditions: in vivo, 1 h.

On to `CC(C)(O)c1ccc(N2Cc3c(cc(C4CCOCC4)nc3-c3ccccc3OCC(F)F)C2=O)cc1`, for which the chromatographic logD (usually lipophilicity estimated from chromatographic retention) in data set [1] came out at 2.98. Also, the microsomal CLint at 1 µM was found to be 5 µL/min/mg in data set [2] and 1 µL/min/mg in data set [3].

In the case of `CC(C)(O)c1ccc(N2Cc3c(ccnc3-c3ccccc3OCC(F)(F)F)C2=O)cc1`, in data set [1], the chromatographic logD was 2.37. The microsomal CLint at 1 µM was determined as 12 µL/min/mg in data set [2] and 40 µL/min/mg in data set [3].

With `CN(C)C(=O)c1cc2c(c(-c3ccccc3OCC(F)F)n1)CN(c1ccc(C(C)(C)O)cc1)C2=O`, the chromatographic logD in data set [1] stood at 1.85.

For the compound `Cc1cc2c(c(-c3ccccc3OCC(F)(F)F)n1)CN(c1ccc(C(C)(C)O)cc1)C2=O`, the concentration at 1 h in data set [4] was determined as 1940 ng/mL; in data set [6], 1140 ng/g. The Kp uu at 1 h in data set [5] is 0.11. The chromatographic logD in data set [1] turned out to be 2.85. Besides, the microsomal CLint at 1 µM in data set [2] came out at 4 µL/min/mg. The “Cp(f)” value in data set [7] worked out at 387 nM. Besides, in data set [8], the “Drug uptake(free)” value is 43 nM.

With `CC(C)(O)c1ccc(N2Cc3c(cc(C4CCCOC4)nc3-c3ccccc3OCC(F)F)C2=O)cc1` (racemic), the chromatographic logD in data set [1] was found to be 3.19. Also, the microsomal CLint at 1 µM in data set [2] turned out to be 46 µL/min/mg; in data set [3], 61 µL/min/mg.

Take `Cc1cc2c(c(-c3ccccc3OCC(F)F)n1)CN(c1ccc(C(C)(C)O)cc1)C2=O`: the chromatographic logD in data set [1] is 2.69. Besides, the microsomal CLint at 1 µM in data set [2] came to 1 µL/min/mg.

As for `CC(C)(O)c1ccc(N2Cc3c(cc(C(C)(C)O)nc3-c3ccccc3OCC(F)F)C2=O)cc1`, the chromatographic logD in data set [1] turned out to be 2.77. In addition, the microsomal CLint at 1 µM in data set [3] was found to be 3 µL/min/mg.

On to `CC(C)(O)c1ccc(N2Cc3c(cc(C(F)F)nc3-c3ccccc3OCC(F)F)C2=O)cc1`, for which, in data set [1], the chromatographic logD turned out to be 2.86.

For `CC(C)(O)c1ccc(N2Cc3c(cc(C4(C)COC4)nc3-c3ccccc3OCC(F)(F)F)C2=O)cc1`, the concentration at 1 h in data set [4] worked out at 76 ng/mL; in data set [6], 17 ng/g. For the same compound, in data set [5], the Kp uu at 1 h is 0.04. In data set [1], the chromatographic logD turned out to be 2.9. In addition, the microsomal CLint at 1 µM in data set [2] was 52 µL/min/mg; in data set [3], 33 µL/min/mg. Also, in data set [7], the “Cp(f)” value was found to be 17 nM. The “Drug uptake(free)” value in data set [8] is 0.7 nM.

Consider `CC(C)(O)c1ccc(N2Cc3c(cc(C4CCCCC4)nc3-c3ccccc3OCC(F)F)C2=O)cc1`, for which the chromatographic logD in data set [1] was found to be 4.63. The microsomal CLint at 1 µM in data set [2] was determined as 56 µL/min/mg; in data set [3], 33 µL/min/mg.

In data set [1], `CC(C)(O)c1ccc(N2Cc3c(ccnc3-c3ccccc3OCC(F)F)C2=O)cc1` showed a chromatographic logD of 2.2. In addition, the microsomal CLint at 1 µM was 27 µL/min/mg in data set [2] and 17 µL/min/mg in data set [3].

Take `CC(C)(O)c1ccc(N2Cc3c(cc(C4(C)COC4)nc3-c3ccccc3OCC(F)F)C2=O)cc1`: the concentration at 1 h in data set [4] was 284 ng/mL; in data set [6], 65 ng/g. For the same compound, the Kp uu at 1 h in data set [5] amounted to 0.03. The chromatographic logD in data set [1] came out at 2.76. The microsomal CLint at 1 µM is 32 µL/min/mg in data set [2] and 16 µL/min/mg in data set [3]. Moreover, the “Cp(f)” value in data set [7] was 124 nM. For the same compound, in data set [8], the “Drug uptake(free)” value turned out to be 3.9 nM.

`CC(C)(O)c1ccc(N2Cc3c(cc(C(C)(C)F)nc3-c3ccccc3OCC(F)F)C2=O)cc1` returned a chromatographic logD in data set [1] of 3.69. In data set [2], the microsomal CLint at 1 µM turned out to be 1 µL/min/mg.
